Patent US11376306B2, “Peptides and uses therefor as antiviral agents” (priority 2017, dated 2022)
Positions of bridges follow the written chain, without caps; N, C: chain ends. Non-standard residues stand in square brackets, D forms with d. Residues, ends and D or L forms follow the SMILES beside them.

Columns and labels:
[1] = test system: HSV-2; test: Cytopathic effect (CPE) assay, HSV-2 on Vero cells; assay type: cell-based, Herpes Simplex Virus; settings: MOI 0.02, 4 days
Experimental: (§1) FIG. 3: Effect of PSP VI A1 against HSV-2 in vitro. The ability of the peptide to inhibit the replication of HSV was determined by CPE assay on Vero cells. Experiments were done in triplicates and carried out in the presence of DMSO or increasing concentration of test compound.
(§2) Cytopathic effect (CPE) assay for HSV, RSV and CMV: Appropriate cells were seeded into 96 well plates and incubated overnight until they reached ˜70% confluency. Viruses were treated with various concentrations of peptide or vehicle for 90 minutes at 4° C. and added on to the confluent monolayer of cells for the rest of the assay. At the end of the incubation period, the viability of the cells was determined by adding MTT reagent and incubating the plates at 37° C. for 2-4 hours at 5% CO2. After the incubation, 100% isopropanol was added to solubilise the formazan crystals and the absorbance was recorded at 540 nm subtracting the background at 620 nm.
(§3) Pauwels formula (shown below) was used to calculate the percent cell protection achieved by the positive control or test compounds.
(§4) Percent cell protection=([ODt]virus−[ODc]virus/[ODc]mock−[ODc]virus)×100
(§5) These percentages were used to determine the ECso which were calculated by non-linear regression analysis with IDBS XLFit Excel Add-in Version 5.4.0.8

[2] = test system: RSV A2; test: Cytopathic effect (CPE) assay, RSV A2 on Hep-2 cells; assay type: cell-based, Respiratory syncytial virus; settings: CPE assay on Hep-2 cells, MOI 0.02, 5 days
Experimental: as §1, with “1:” for “3:”, “H-RRKKcwwftfiac-OH (PSP” for “PSP”, “A1)” for “A1”, “RSV A2” for “HSV-2”, “RSV A2” for “HSV”, “Hep-2” for “Vero”
as §2, §3, §4, §5

[3] = test system: CMV AD169; test: Cytopathic effect (CPE) assay, CMV AD169 on HFFF-2 cells; assay type: cell-based, Cytomegalovirus; settings: CPE assay on HFFF-2 cells, MOI 0.006, 14 days
Experimental: FIG. 5: Effect of PSP VI A1 against CMV in vitro. The ability of the peptide to inhibit the replication of CMV was determined by CPE assay on HFFF-2 cells. Experiments were done in triplicates and carried out in the presence of DMSO or increasing concentration of test compound.
as §2, §3, §4, §5

[4] = test system: HIV-1 92UG029; assay type: cell-based, Human Immunodeficiency Virus
Experimental: FIG. 7: Effect of PSP VI A1 against HIV-1 92UG029 in vitro. The ability of the peptide to inhibit the replication of HIV was determined by reverse transcriptase assay on PBMCs. Experiments were carried out in the presence of DMSO or increasing concentration of peptide. Results are presented as mean value of triplicate measurements.
Anti-HIV Efficacy Evaluation in Fresh Human PBMCs: PBMCs were infected with various concentrations of peptide treated viruses and incubated at 37° C., 5% CO2 for seven days. After this incubation, the cells were centrifuged down and the supernatants were collected for reverse transcriptase activity (RT) assay. The cytotoxic effects of the compounds were studied with the addition of MTS to the cells following the removal of the supernatant. Data analysis for IC50 and TC50 was done by the CRO with their in house computer program.
Reverse transcriptase activity assay: Reverse transcriptase (RT) assay was carried out in a microtiter plate. Briefly Tritiated thymidine triphosphate (3H-TTP, 80 Ci/mmol, NEN;(GE Healthcare) was prepared as a stock solution by combining 150 μL poly rA (20 mg/mL) with 0.5 mL oligo dT (20 units/mL) and 5.35 mL sterile dH2O. Fresh RT reaction buffer was prepared with 125 μL 1.0 M EGTA, 125 μL dH2O, 125 μL 20% Triton X100, 50 μL 1.0 M Tris (pH 7.4), 50 μL 1.0 M DTT, and 40 μL 1.0 M MgCl2. The final reaction mixture was obtained by mixing 1 part of 3H-TTP, 4 parts dH2O, 2.5 parts poly rA:oligo dT stock and 2.5 parts reaction buffer. Ten microliters of this reaction mixture was added to the microtiter plate and 15 μL of virus containing supernatant is added and mixed. Then the plate was incubated at 37° C. for 60 minutes. After the incubation, the reaction volume was spotted onto DE81 filter-mats (Wallac), washed extensively with 5% sodium phosphate buffer or 2× SSC (Life Technologies), then in distilled water which was followed by 70% ethanol wash and air drying. Standard liquid scintillation techniques were used to quantify the incorporated radioactivity (counts per minute, CPM).

[5] = Cytotoxicity Assay 2 (CellTiter 96 AQueous One) on A549 cells; assay type: cell-based; settings: human, 0.1-100 μM, no significant toxicity, read-out: CE50 (Cytotoxic Effect 50)
Experimental: (§6) Cytotoxicity Assay 2: MDCK cells or A549 cells (˜5000 cells/well) are grown overnight on 96 well plates. The media is replaced by serially diluted peptides and incubated again for 24/48 h. The culture medium is removed and 20 μl of CellTiter 96® AQueous One Solution […] (Promega, Wis., USA) is added and incubated at 37° C. for 2 h. The optical density is measured at 490 nm in an microplate reader (iMARK, BioRad, USA).
(§7) Cytotoxic effects of anti-viral peptides on MDCK cells or A549 cells: The cytotoxic effects of anti-viral peptides are shown in FIG. 12 and FIG. 13 which are assessed as explained in Example 1. Briefly, the MDCK cells/A549 cells are treated with either 0 μM peptide (Mock) or increasing concentrations (i.e., 0.1 μM, 0.3 μM, 1 μM, 3 μM, 10 μM, 30 μM and 100 μM) of PSP V A19 and PSP VI A1 and the cell death is determined by 48 hours post infection by a cytotoxicity assay with CellTiter 96® AQueous One Solution cell proliferation assay kit (Promega, USA) as explained by manufacturer. The results are normalized to the mock treated cells.

[6] = Cytotoxicity Assay 2 (CellTiter 96 AQueous One) on MDCK cells; assay type: cell-based; settings: dog, 0.1-100 μM, no significant toxicity, read-out: CE50 (Cytotoxic Effect 50)
Experimental: as §6, §7

CC[C@@H](C)[C@H]1NC(=O)[C@@H](Cc2ccccc2)NC(=O)[C@@H]([C@H](C)O)NC(=O)[C@@H](Cc2ccccc2)NC(=O)[C@@H](Cc2c[nH]c3ccccc23)NC(=O)[C@@H]([C@H](C)O)NC(=O)[C@H](NC(=O)[C@H](CCCCN)NC(=O)[C@H](CCCCN)NC(=O)[C@H](CCCNC(=N)N)NC(=O)[C@@H](N)CCCNC(=N)N)CSSC[C@H](C(=O)O)NC(=O)[C@@H](CC(N)=O)NC1=O [PSP IV A17, H-RRKKctwftfinc-OH] (H-RRKK[dC][dT][dW][dF][dT][dF][dI][dN][dC]-OH; disulfide 5-13)
EC50 [1]: ~30 µM
EC50 [2]: 12.6 µM
EC50 [3]: 18.9 µM

CC[C@@H](C)[C@@H](NC(=O)[C@@H](Cc1ccccc1)NC(=O)[C@H](NC(=O)[C@@H](Cc1ccccc1)NC(=O)[C@@H](Cc1c[nH]c2ccccc12)NC(=O)[C@H](NC(=O)[C@H](CCCCN)NC(=O)[C@H](CCCCN)NC(=O)[C@H](CCCNC(=N)N)NC(=O)[C@@H](N)CCCNC(=N)N)[C@H](C)O)[C@H](C)O)C(=O)N[C@H](CC(N)=O)C(=O)O [PSP IV A17-LS, H-RRKKtwftfin-OH] (H-RRKK[dT][dW][dF][dT][dF][dI][dN]-OH)
IC50 [4]: 79.1 µM

CC[C@@H](C)[C@H]1NC(=O)[C@@H](Cc2ccccc2)NC(=O)[C@@H]([C@H](C)O)NC(=O)[C@@H](Cc2ccccc2)NC(=O)[C@@H](Cc2c[nH]c3ccccc23)NC(=O)[C@@H](Cc2c[nH]c3ccccc23)NC(=O)[C@H](NC(=O)[C@H](CCCCN)NC(=O)[C@H](CCCCN)NC(=O)[C@H](CCCNC(=N)N)NC(=O)[C@@H](N)CCCNC(=N)N)CSSC[C@H](C(=O)O)NC(=O)[C@@H](CC(N)=O)NC1=O [PSP V A19, H-RRKKcwwftfinc-OH] (H-RRKK[dC][dW][dW][dF][dT][dF][dI][dN][dC]-OH; disulfide 5-13)
CC50 at 48 h [5]: > 30 µM
CC50 at 48 h [6]: > 30 µM

CC[C@@H](C)[C@H]1NC(=O)[C@@H](Cc2ccccc2)NC(=O)[C@@H]([C@H](C)O)NC(=O)[C@@H](Cc2ccccc2)NC(=O)[C@@H](Cc2c[nH]c3ccccc23)NC(=O)[C@@H](Cc2c[nH]c3ccccc23)NC(=O)[C@H](N)CSSC[C@H](C(=O)O)NC(=O)[C@@H](CC(N)=O)NC1=O [PSP V A19-C, H-cwwftfinc-OH] (H-[dC][dW][dW][dF][dT][dF][dI][dN][dC]-OH; disulfide 1-9)
IC50 [4]: 66.5 µM

CC[C@@H](C)[C@H]1NC(=O)[C@@H](Cc2ccccc2)NC(=O)[C@@H]([C@H](C)O)NC(=O)[C@@H](Cc2ccccc2)NC(=O)[C@@H](Cc2c[nH]c3ccccc23)NC(=O)[C@@H](Cc2c[nH]c3ccccc23)NC(=O)[C@H](NC(=O)[C@H](CCCCN)NC(=O)[C@H](CCCCN)NC(=O)[C@H](CCCNC(=N)N)NC(=O)[C@@H](N)CCCNC(=N)N)CSSC[C@H](C(=O)O)NC(=O)[C@@H](C)NC1=O [PSP VI A1, H-RRKKcwwftfiac-OH] (H-RRKK[dC][dW][dW][dF][dT][dF][dI][dA][dC]-OH; disulfide 5-13)
EC50 [1]: ~30 µM
IC50 [4]: 60.8 µM
EC50 [2]: 17.8 µM
CC50 at 48 h [5]: > 30 µM
EC50 [3]: 13.8 µM
CC50 at 48 h [6]: > 30 µM
